Patent US7056908B2, “Pharmaceutical compositions and methods for preventing skin tumor formation and causing regression of existing tumors” (priority 1991, dated 2006)

Columns and labels:
Assay type in all cases: cell-based, mouse
308 cells [1] = assay: Cornified envelope formation in 308 cells; details: 1.4 mM Ca2+ medium, 3 days
Procedure: (§1) Cornified Envelope Quantitation. Keratinocytes were analyzed for cornified envelope formation as described (Nagae, S. et al, “Effect of retinoic acid on cornified envelope formation: difference between spontaneous envelope formation in vivo or in vitro and expression of envelope competence,” J. Invest., Dermatol., 89: 51–58, 1987), with minor modifications. Floating cells were harvested by collecting culture medium from each 60 mm dish and combining with two washes using phosphate-buffered saline without Ca^2+ and Ms^+2 (PBS). Cells were pelleted for 5 minutes at 1000 rpm in a benchtop clinical centrifuge and resuspended in 100 μl of lysis buffer (2% sodium dodecyl sulfate (SDS) and 20 mM dithiothreitol in PBS). Attached cells were harvested in 250 μl lysis buffer, combined with the preparation of floating cells, and incubated at 95° for 10 minutes. The non-solubilized, intact cornified envelopes, characteristic of terminally differentiated keratinocytes, were counted using a hemocytometer (Nagae, S. et al, “Effect of retinoic acid on cornified envelope formation: difference between spontaneous envelope formation in vivo or in vitro and expression of envelope competence,” J. Invest. Dermatol., 89: 51–58, 1987).
(§2) Cornified envelope formation was also determined in cultures of staurosporine-treated neoplastic cells. […]

primary keratinocytes [2] = assay: Epidermal transglutaminase activity in primary keratinocytes; details: 9 hours, 1.4 mM Ca2+ medium; for increase in epidermal transglutaminase activity: 8 day old cultures
Procedure: Enzyme Assays. Activity of epidermal transglutaminase was determined by measuring cross-linking of ^3H-putrescine to dimethylcasein (20). Cell lysates were incubated at […] for 10 minutes to inactivate tissue transglutaminase. Ornithine decarboxylase activity of cell lysates was determined by quantifying release of ^14CO2 from ^14C-ornithine (Sako, T. et al, “Partial parallelism and partial blockade by bryostatin 1 of effects of phorbol ester tumor promoters on primary mouse epidermal cells,” Cancer Res., 47: 5445–5450, 1987).
Epidermal transglutaminase activity is elevated in terminally differentiating keratinocytes both in vivo and in vitro. […] Control cultures (0 nM dose) were treated with 0.1% DMSO. Each point is the average of duplicate dishes with the range indicated by error bars.

SP-1 cells [3] = assay: Morphological differentiation of SP-1 neoplastic keratinocyte cell line; details: for morphological changes: 24 hours, 10 nM staurosporine or 160 nM TPA
40 kD protein (pp40) = assay: 32P phosphoprotein analysis in digitonin-permeabilized keratinocytes; details: for phosphorylation of band at about 40 kD (pp40): 160 nM TPA or 10 nM staurosporine
Procedure: Cell Permeabilization and ^32P-Labelled Phosphoprotein Analysis. Primary mouse keratinocytes were permeabilized with digitonin to facilitate uptake of ^32P-ATP essentially as described (Erusalimsky, J. D. et al, “Diacylglycerols, and phorbol esters rapidly stimulate the phosphorylation of an Mr=80,000 protein kinase C substrate in permeabilized 3T3 cells,” J. Biol. Chem., 263: 19188–19194, 1988). To first assess the efficacy of permeabilization at different digitonin concentrations, 5–10 μg/ml of the DNA-binding fluorochrome propidium iodide (Jones, K. H. et al, “An improved method to determine cell viability by simultaneous staining with fluorescein diacetate-propidium iodide,” J. Histochem. Cytochem., 33: 77–79, 1985) was added to permeabilization buffer instead of labelled ATP. After incubation at 37° for 1–3 minutes, the buffer was removed and cells washed 3–4 times with PBS prior to fluorescence microscopy. […] Following ^32P-labelling, cells were immediately harvested and lysates subject to SDS/8.5% polyacrylamide gel electrophoresis. Approximate molecular weights were determined using pre-stained protein markers (Amersham, Arlington Heights, Ill.). Dried gels were exposed to Kodak X-Omat AR film at −70° prior to development.
Cells were harvested immediately and proteins separated by SDS/PAGE. Dried gels were exposed to Kodak X-Omat AR film at −70° for 12–24 hours prior to development.

SP-1 cells [4] = assay: Cornified envelope formation in SP-1 cells; details: 1.4 mM Ca2+ medium, 3 days
Procedure: as §1, §2

primary keratinocytes [5] = assay: Morphological changes and detachment of primary keratinocytes; details: for alteration of cell morphology first detectable after: 10 nM staurosporine or 160 nM TPA, 0.05 mM Ca2+ medium
SP-1 cells [6] = assay: Epidermal transglutaminase activity in neoplastic keratinocytes; details: 24 hours
308 cells [7] = assay: Morphological differentiation of 308 neoplastic keratinocyte cell line; details: for morphological changes: 24 hours, 10 nM staurosporine or 160 nM TPA
[8] = morphological response to staurosporine
[9] = doses ranging from 1.6 nM to 16 uM

Compound: CN[C@@H]1C[C@H]2O[C@@](C)([C@@H]1OC)n1c3ccccc3c3c4c(c5c6ccccc6n2c5c31)C(=O)NC4 [staurosporine]
- induction of cornified envelopes (308 cells [1]; 10 nM staurosporine): 60 fold
- increase in epidermal transglutaminase activity (primary keratinocytes [2]; 10 nM): 4 fold
- dose to which induction of transglutaminase activity is restricted (primary keratinocytes [2]): 10 nM
- morphological changes (SP-1 cells [3]): morphological changes similar to those seen in primary cells
- treatment time required for a maximal response (SP-1 cells [3]; [8]): at least 48 hours
- overall protein phosphorylation (40 kD protein (pp40); 10 nM staurosporine, 3 minutes): reduction in overall protein phosphorylation
- effect of co-exposure on TPA-mediated phosphorylation of pp40 (40 kD protein (pp40); 160 nM TPA and 10 nM staurosporine): blocked the TPA-mediated phosphorylation
- phosphorylation of band at about 40 kD (pp40) (40 kD protein (pp40); 3 minutes): not detected
- inducing phosphorylation of pp40 (40 kD protein (pp40); additional doses ranging from 0.1 to 5 nM): ineffective
- induction of cornified envelopes (SP-1 cells [4]; 10 nM staurosporine): 10 fold
- alteration of cell morphology first detectable after (primary keratinocytes [5]): 20 minutes
- cells detached from the substrate (primary keratinocytes [5]; 10 nM staurosporine, 24 hours): nearly all cells
- treatment time required for a maximal response (primary keratinocytes [5]; [8]): 24 h
- maximum induction of epidermal transglutaminase activity (SP-1 cells [6]; 100 nM, 5 day old SP-1 cells): 50 fold
- morphological changes (308 cells [7]): morphological changes similar to those seen in primary cells
- treatment time required for a maximal response (308 cells [7]; [8]): at least 48 hours

Compound: CCCCCCCCCCCCCC(=O)O[C@@H]1[C@@H](C)[C@@]2(O)[C@@H](C=C(CO)C[C@]3(O)C(=O)C(C)=C[C@@H]23)[C@H]2C(C)(C)[C@]12OC(C)=O [TPA, 12-0-tetradecanoylphorbol-13-acetate, reference compound]
- cornified envelope formation (308 cells [1]; 160 nM TPA): not induced
- increase in epidermal transglutaminase activity (primary keratinocytes [2]; 100 and 1000 nM): 5 fold
- morphological changes (SP-1 cells [3]): does not appreciably alter the appearance
- inducing morphological differentiation (SP-1 cells [3]; [9]): ineffective
- phosphorylation of band at about 40 kD (pp40) (40 kD protein (pp40); 3 minutes): enhanced phosphorylation
- cornified envelope formation (SP-1 cells [4]; 160 nM TPA): not induced
- alteration of cell morphology first detectable after (primary keratinocytes [5]): 20 minutes
- cells rounded-up and detached from the substrate (primary keratinocytes [5]; 160 nM TPA, after 24 hours): about 50%
- effect on epidermal transglutaminase activity (SP-1 cells [6]; any dose ranging from 10 pM to 10 μM): no detectable effect
- morphological changes (308 cells [7]): does not appreciably alter the appearance
- inducing morphological differentiation (308 cells [7]; [9]): ineffective
